Experimental data taken from ChEMBL document CHEMBL1201862, “PubChem BioAssay data set” (2004).
Blank lines part the entries; values can stand above or below the compound they belong to. The source made the active and inactive calls.

Key:
Cytochrome P450 2C19 = Cytochrome P450 2C19 (Homo sapiens, UniProt P33261); test: Cytochrome panel assay with activity outcomes. Panel member name: p450-cyp2c19 Compounds with AC50 equal or less than 10 uM are considered active; assay type: functional
Protein skinhead-1 = target: T1, Protein skinhead-1 (Caenorhabditis elegans, UniProt P34707); assay type: functional
T1 sequence (P34707 whole entry): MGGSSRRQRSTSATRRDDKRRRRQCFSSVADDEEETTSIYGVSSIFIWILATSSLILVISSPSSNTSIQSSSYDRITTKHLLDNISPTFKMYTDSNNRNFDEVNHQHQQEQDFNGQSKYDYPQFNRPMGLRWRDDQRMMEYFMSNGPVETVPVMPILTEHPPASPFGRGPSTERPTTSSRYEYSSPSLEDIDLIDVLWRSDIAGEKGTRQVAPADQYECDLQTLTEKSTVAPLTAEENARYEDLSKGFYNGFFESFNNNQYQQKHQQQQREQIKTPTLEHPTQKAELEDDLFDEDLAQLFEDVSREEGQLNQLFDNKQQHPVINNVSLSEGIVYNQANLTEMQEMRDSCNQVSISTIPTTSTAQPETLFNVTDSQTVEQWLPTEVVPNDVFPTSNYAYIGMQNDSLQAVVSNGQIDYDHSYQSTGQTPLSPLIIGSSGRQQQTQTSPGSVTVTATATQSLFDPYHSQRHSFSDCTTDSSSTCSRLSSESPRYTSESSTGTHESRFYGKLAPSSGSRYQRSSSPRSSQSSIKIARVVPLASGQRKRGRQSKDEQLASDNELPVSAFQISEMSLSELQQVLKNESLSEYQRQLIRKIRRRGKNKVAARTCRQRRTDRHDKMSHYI

Cytochrome P450 1A2 = target: T2, Cytochrome P450 1A2 (Homo sapiens, UniProt P05177);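 note: PubChem cytochrome P450 panel assay, CYP1A2 panel member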
T2 sequence (P05177 whole entry): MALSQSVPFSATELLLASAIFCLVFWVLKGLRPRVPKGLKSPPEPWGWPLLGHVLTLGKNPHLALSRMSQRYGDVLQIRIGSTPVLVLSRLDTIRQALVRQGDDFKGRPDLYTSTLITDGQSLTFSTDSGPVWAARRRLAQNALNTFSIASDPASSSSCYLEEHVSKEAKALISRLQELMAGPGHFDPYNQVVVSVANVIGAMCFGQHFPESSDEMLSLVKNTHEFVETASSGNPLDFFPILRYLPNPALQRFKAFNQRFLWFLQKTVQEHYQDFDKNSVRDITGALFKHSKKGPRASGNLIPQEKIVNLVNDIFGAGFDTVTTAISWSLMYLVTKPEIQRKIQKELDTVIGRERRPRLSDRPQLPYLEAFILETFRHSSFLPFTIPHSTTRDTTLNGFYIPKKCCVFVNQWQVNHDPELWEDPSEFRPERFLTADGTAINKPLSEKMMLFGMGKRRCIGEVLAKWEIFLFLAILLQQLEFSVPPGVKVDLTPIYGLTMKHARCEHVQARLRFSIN

Cytochrome P450 2D6 = Cytochrome P450 2D6 (Homo sapiens, UniProt P10635);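 note: CYP2D6 member of a cytochrome P450 panel assay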
Sequence of Cytochrome P450 2D6 (P10635 whole entry): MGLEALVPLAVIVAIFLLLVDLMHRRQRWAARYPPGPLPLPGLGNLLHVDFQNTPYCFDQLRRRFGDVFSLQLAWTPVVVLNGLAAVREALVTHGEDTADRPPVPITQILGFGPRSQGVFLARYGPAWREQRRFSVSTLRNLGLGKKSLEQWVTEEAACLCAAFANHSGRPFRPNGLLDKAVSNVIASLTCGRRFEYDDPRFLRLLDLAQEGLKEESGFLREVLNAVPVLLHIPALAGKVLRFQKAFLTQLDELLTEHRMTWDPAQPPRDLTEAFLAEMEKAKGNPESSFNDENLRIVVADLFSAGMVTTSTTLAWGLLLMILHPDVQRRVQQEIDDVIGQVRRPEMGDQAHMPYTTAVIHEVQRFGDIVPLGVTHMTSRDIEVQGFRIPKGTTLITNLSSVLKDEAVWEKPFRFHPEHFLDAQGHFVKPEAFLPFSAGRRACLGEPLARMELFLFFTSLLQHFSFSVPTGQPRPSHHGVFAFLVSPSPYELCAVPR

Cytochrome P450 2C9 = Cytochrome P450 2C9 (Homo sapiens, UniProt P11712)
Sequence of Cytochrome P450 2C9 (P11712 whole entry): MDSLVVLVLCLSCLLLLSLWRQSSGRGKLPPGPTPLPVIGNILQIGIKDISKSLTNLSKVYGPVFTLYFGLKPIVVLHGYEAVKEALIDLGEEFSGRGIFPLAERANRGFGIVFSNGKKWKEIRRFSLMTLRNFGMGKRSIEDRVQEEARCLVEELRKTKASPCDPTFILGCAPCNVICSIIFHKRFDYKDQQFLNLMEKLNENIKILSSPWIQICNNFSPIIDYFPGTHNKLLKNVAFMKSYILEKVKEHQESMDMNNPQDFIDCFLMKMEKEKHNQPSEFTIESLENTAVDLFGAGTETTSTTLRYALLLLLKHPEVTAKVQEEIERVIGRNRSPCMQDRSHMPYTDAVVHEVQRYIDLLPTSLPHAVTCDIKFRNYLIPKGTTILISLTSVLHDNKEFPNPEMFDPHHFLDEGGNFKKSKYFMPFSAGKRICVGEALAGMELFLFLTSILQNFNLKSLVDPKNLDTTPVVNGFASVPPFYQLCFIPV

[1] = target: T3, Heat shock factor protein 1 (Mus musculus, UniProt P38532); test: inhibition of MG132-induced HSE-luciferase signal, confirmation, cell-based, NIH3T3, luminescence, dose retest (AID 2382); assay type: functional;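 note: NIH3T3 fibroblasts with HSF1-driven luciferase reporter stressed by proteasome inhibitor MG132; luminescence from HSF1-driven luciferase expression after 8 hours of MG132 stress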
T3 sequence (P38532 whole entry): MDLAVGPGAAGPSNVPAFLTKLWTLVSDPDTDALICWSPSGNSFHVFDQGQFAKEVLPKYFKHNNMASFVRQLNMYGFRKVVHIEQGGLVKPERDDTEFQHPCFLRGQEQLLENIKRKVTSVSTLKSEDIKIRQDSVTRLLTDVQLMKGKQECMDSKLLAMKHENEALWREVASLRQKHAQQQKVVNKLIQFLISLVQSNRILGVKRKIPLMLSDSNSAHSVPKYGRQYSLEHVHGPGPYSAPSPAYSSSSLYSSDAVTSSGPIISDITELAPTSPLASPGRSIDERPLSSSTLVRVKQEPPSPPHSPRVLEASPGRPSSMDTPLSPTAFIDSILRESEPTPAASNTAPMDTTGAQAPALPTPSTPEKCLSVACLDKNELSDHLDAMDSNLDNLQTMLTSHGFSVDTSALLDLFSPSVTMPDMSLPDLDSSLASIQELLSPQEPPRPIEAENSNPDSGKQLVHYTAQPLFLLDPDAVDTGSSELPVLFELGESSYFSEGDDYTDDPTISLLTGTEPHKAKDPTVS

[2] = target: T4, Corticotropin-releasing factor receptor 2/Corticotropin-releasing factor-binding protein (Homo sapiens, UniProt P24387+Q13324); test: activators of CRF receptor 2 with binding protein – uHTS hits, confirmation (AID 602473); assay type: functional; conditions: read-out: EC50_Mean
T4 sequence (Q13324 whole entry): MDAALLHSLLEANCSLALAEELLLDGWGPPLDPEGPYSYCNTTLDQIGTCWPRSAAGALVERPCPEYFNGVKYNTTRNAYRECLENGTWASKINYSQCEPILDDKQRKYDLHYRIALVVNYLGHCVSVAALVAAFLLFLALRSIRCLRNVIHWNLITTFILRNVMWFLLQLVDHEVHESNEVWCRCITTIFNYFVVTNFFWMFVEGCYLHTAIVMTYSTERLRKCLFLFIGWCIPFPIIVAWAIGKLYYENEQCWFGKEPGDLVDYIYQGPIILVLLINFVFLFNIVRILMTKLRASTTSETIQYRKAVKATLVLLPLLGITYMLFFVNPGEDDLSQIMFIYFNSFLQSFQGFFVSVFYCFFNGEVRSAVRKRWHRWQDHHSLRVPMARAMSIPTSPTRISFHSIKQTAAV
T4 sequence (P24387 whole entry): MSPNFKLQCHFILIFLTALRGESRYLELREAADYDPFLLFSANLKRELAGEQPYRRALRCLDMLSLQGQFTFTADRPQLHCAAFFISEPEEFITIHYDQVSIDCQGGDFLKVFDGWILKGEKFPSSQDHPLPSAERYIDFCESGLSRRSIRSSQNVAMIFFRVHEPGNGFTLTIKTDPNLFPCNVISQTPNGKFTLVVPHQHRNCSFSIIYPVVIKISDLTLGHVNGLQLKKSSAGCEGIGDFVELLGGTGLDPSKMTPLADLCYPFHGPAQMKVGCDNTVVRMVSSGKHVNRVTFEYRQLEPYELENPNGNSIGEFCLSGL

Sequence of Cytochrome P450 2C19 (P33261 whole entry): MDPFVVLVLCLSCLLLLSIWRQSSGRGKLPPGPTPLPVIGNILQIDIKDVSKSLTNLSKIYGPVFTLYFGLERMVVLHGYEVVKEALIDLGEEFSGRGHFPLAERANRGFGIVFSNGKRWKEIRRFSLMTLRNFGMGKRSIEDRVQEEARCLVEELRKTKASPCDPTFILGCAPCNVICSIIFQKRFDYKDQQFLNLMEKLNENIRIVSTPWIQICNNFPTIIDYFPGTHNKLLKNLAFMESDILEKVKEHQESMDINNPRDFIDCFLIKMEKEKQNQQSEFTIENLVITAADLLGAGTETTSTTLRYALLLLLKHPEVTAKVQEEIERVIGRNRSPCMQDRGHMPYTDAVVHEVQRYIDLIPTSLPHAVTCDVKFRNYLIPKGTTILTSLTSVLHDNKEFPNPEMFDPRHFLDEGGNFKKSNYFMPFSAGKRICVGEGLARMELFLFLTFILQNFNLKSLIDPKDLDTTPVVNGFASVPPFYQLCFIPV

SMILES: N=C(N)SCC(=O)O
AC50 (Cytochrome P450 2C19): inconclusive

SMILES: CC(=O)NC(CCS(C)(=O)=O)C(=O)Nc1c(F)cccc1F (stereo not drawn)
AC50 (Cytochrome P450 2C19): inconclusive

SMILES: Cc1cc(OCCCCN2C(=O)NC(C)(C)C2=O)cc(C)c1Cl
IC50 (Protein skinhead-1): > 100 µM (inactive)

SMILES: COc1ccc(C(=O)N2CCC[C@@]3(CCN(CC(C)C)C3)C2)cc1
AC50 (Cytochrome P450 1A2): 31.6 µM (inconclusive) | AC50 (Cytochrome P450 2D6): 15.8 µM (inconclusive)

SMILES: N#Cc1cccc(NC(=O)N2CC[C@@]3(CCCN(S(=O)(=O)c4ccccc4)C3)C2)c1
AC50 (Cytochrome P450 1A2): 25.1 µM (inconclusive) | AC50 (Cytochrome P450 2C19; read-out: AC50): 39.8 µM (inconclusive) | AC50 (Cytochrome P450 2C9): 39.8 µM (inconclusive) | AC50 (Cytochrome P450 2D6): 39.8 µM (inconclusive)

SMILES: CC(C)CN1CC[C@@]2(CCCN(C(=O)c3cc(C(F)(F)F)cc(C(F)(F)F)c3)C2)C1
AC50 (Cytochrome P450 1A2): 25.1 µM (inconclusive) | AC50 (Cytochrome P450 2C19; read-out: AC50): 39.8 µM (inconclusive)

SMILES: CCn1c(=O)c(C(=O)Nc2ccccc2F)c(O)c2ccccc21
EC50 [1]: > 195 µM (not active)

SMILES: CCc1cc2c(=O)c(-c3nc4ccccc4n3C)c(C)oc2c(CN(CC)CC)c1O
AC50 (Cytochrome P450 2C19; read-out: AC50): 3.55 µM (inconclusive)

SMILES: Cn1cc(-c2nc3cnc(N4CCNCC4)nc3n(CCc3ccccc3)c2=O)c2ccccc21
AC50 (Cytochrome P450 1A2): 15.8 µM (inconclusive) | AC50 (Cytochrome P450 2D6): 39.8 µM (inconclusive)

SMILES: Cc1cnc(CNc2ncncc2-c2ccc3c(c2)OCO3)cn1
AC50 (Cytochrome P450 2D6): 20 µM (inconclusive)

SMILES: N#Cc1ccc(OC(=O)c2ccc(NC(=N)N)cc2)cc1.c1ccncc1
AC50 (Cytochrome P450 1A2): 2.51 µM (inconclusive) | AC50 (Cytochrome P450 2D6): 3.16 µM (inconclusive)

SMILES: O=C(OCC(=O)N1N=C(c2ccc(Cl)cc2)CC1c1ccco1)c1ccccc1O (stereo not drawn)
IC50 (Protein skinhead-1): > 100 µM (inactive)

SMILES: CCOC(=O)C1CCCN(C(=O)CSCc2ccccc2)C1 (stereo not drawn)
AC50 (Cytochrome P450 2D6): 15.8 µM (inconclusive)

SMILES: CCOC(=O)c1cc2sc(C)cc2n1CC(=O)N1CCN(C(=O)c2ccco2)CC1
AC50 (Cytochrome P450 1A2): 31.6 µM (inconclusive) | AC50 (Cytochrome P450 2C9): 20 µM (inconclusive)

SMILES: Cc1cccc(N2CCN(C(c3ccccc3)c3nnnn3CC3CCCO3)CC2)c1C (stereo not drawn)
EC50 [1]: > 195 µM (not active)

SMILES: COc1ccc2[nH]cc(CCNc3ccnc(-c4ccccc4C(F)(F)F)n3)c2c1
AC50 (Cytochrome P450 2D6): 15.8 µM (inconclusive)

SMILES: COc1ccc2nc(N3CCCC(C(=O)NCCCN4CCN(C)CC4)C3)sc2c1 (stereo not drawn)
AC50 (Cytochrome P450 1A2): 12.6 µM (inconclusive) | AC50 (Cytochrome P450 2C19): inconclusive | AC50 (Cytochrome P450 2C9): 4.47 µM (inconclusive)

SMILES: CCOCC(=O)Nc1cccc(Br)c1
IC50 (Protein skinhead-1): > 100 µM (inactive)

SMILES: O=C(Nc1ncc2c(n1)-c1ccccc1CC2)c1cccc(Cl)c1
AC50 (Cytochrome P450 1A2): 2.82 µM (inconclusive) | AC50 (Cytochrome P450 2C9): 20 µM (inconclusive)

SMILES: CC(=O)N(c1ccc2oc(=O)sc2c1)S(=O)(=O)c1ccc(C(=O)O)cc1
EC50 [1]: > 195 µM (not active)

SMILES: Cc1ccc(S(=O)(=O)N2CCC(=O)N(C(COCc3ccc(Cl)c(Cl)c3)Cc3ccccc3)CC2)cc1 (stereo not drawn)
EC50 [2]: 4.29 µM (active)

SMILES: c1nc(NCCN2CCOCC2)c2cc(-c3ccc4c(c3)OCO4)ccc2n1
AC50 (Cytochrome P450 2C19; read-out: AC50): 39.8 µM (inconclusive)

SMILES: COc1ccc(NC(=O)NCCCN2CCCCC2C)cc1 (stereo not drawn)
AC50 (Cytochrome P450 1A2): 25.1 µM (inconclusive) | AC50 (Cytochrome P450 2C19; read-out: AC50): 39.8 µM (inconclusive) | AC50 (Cytochrome P450 2C9): 1.26 µM (inconclusive)

SMILES: CC(=O)N1CCN(c2ccccc2NC(=O)COc2ccc(Br)cc2)CC1
AC50 (Cytochrome P450 2D6): 15.8 µM (inconclusive)

SMILES: O=C(NCc1cc(C(F)(F)F)ccc1Cl)c1cccc2c1C(=O)c1ccc(N3CCC(Cc4ccccc4)CC3)cc1S2(=O)=O
EC50 [2]: 5.99 µM (active)

SMILES: COc1ccc(C(C)=O)cc1CN1C(=O)C(C)ON=C1c1cccc(C(F)(F)F)c1 (stereo not drawn)
IC50 (Protein skinhead-1): > 100 µM (inactive)

SMILES: COc1ccc(C(=O)O[C@H]2CC[C@@]3(C)[C@H]4CC[C@H]5[C@]3(C[C@]3(O)[C@H]6CN7C[C@H](C)CC[C@H]7[C@](C)(O)[C@]6(O)[C@H](O)C[C@]53O)O[C@]24O)cc1OC
AC50 (Cytochrome P450 2C19): inconclusive

SMILES: COc1ccc(CNc2ncnc3ccc(-c4ccc(N(C)C)cc4)cc23)c(OC)c1
AC50 (Cytochrome P450 2C9): 0.398 µM (inconclusive) | AC50 (Cytochrome P450 2D6): 25.1 µM (inconclusive)

Second part, the compound after the results:

AC50 (Cytochrome P450 2C19; read-out: AC50): 7.94 µM (inconclusive) | AC50 (Cytochrome P450 2C9): 15.8 µM (inconclusive)
SMILES: Nc1ccc(/N=N\c2ccccc2)c(N)n1

AC50 (Cytochrome P450 1A2): 7.08 µM (inconclusive) | AC50 (Cytochrome P450 2C19; read-out: AC50): 3.98 µM (inconclusive)
SMILES: CCOC(=O)c1ccc(NC(=O)COc2ccccc2OC)cc1

IC50 (Protein skinhead-1): > 100 µM (inactive)
SMILES: OC(c1ccccn1)c1c[nH]c2ccccc12 (stereo not drawn)

IC50 (Protein skinhead-1): > 100 µM (inactive)
SMILES: Cc1ccc(C)c(NC(=O)c2sc(Cl)nc2-c2ccccc2)c1

IC50 (Protein skinhead-1): > 100 µM (inactive)
SMILES: COc1ccc(C2CC(c3ccccc3)=NN2S(=O)(=O)c2ccc(C)cc2)c(OC)c1 (stereo not drawn)

IC50 (Protein skinhead-1): 13.4 µM (active)
SMILES: CC(C)c1nc(-c2ccc([N+](=O)[O-])cc2)cs1

IC50 (Protein skinhead-1): > 100 µM (inactive)
SMILES: CCOC(=O)c1cc(-c2ccco2)nc2c1c(C)nn2-c1ccccc1

AC50 (Cytochrome P450 2D6): 25.1 µM (inconclusive)
SMILES: c1cncc(-c2cc(NCc3cccs3)ncn2)c1

IC50 (Protein skinhead-1): > 100 µM (inactive)
SMILES: Cc1cccc(CC(=O)NCCn2c(C)cc3ccccc32)c1

AC50 (Cytochrome P450 2C9): 31.6 µM (inconclusive) | AC50 (Cytochrome P450 2D6): 22.4 µM (inconclusive)
SMILES: Cc1ccc(-c2ncccc2OC(=O)C23CC4CC(CC(C4)C2)C3)cc1

EC50 [2]: > 53 µM (inactive)
SMILES: COc1ccc(-n2c(C)cc(/C=C3/SC(=S)N(C)C3=O)c2C)cc1

IC50 (Protein skinhead-1): > 100 µM (inactive)
SMILES: O=c1c2ccccc2oc2ccc(-c3ccc4cc[nH]c4c3)cc12

IC50 (Protein skinhead-1): > 100 µM (inactive)
SMILES: CC(C)CC(C(=O)NCc1ccccn1)N1C(=O)c2ccccc2C1=O (stereo not drawn)
